From US7902261B2, “Medicinal compositions for preventing or treating viral myocarditis” (Mitsubishi Tanabe Pharma Corporation, priority 1999, dated 2011)
Structures can show the parent of a compound that is named as a salt.

What was measured:
NO = test: Intracardiac nitric oxide (NO) assay (modified Griess method); assay type: in vivo, mouse; settings: heart ventricle at day 5; CsA 40 mg/kg/day, compound 1 10 mg/kg/day orally; mean ± SEM; control 2.07 ± 0.20
Protocol: Four-week-old male DBA/2 mice were divided into 3 groups and EMC virus (10 pfu) was intraperitoneally inoculated. After inoculation, distilled water (solvent, n=8) as a control, CsA (40 mg/kg/day, n=5), and compound 1 (10 mg/kg/day, n=7) were orally administered forcibly for 5 consecutive days using a probe. Five days later, the heart was aseptically harvested from the mice, and after weighing the ventricle, homogenized in phosphate-buffered saline (PBS, 1 ml). The homogenate was centrifuged at 4° C., 1,500 g for 15 min and the supernatant (0.1 ml) was inoculated to human amnion FL cell monolayer and cultured at 37° C. for 60 min in 5% CO2. The cells were overlaid with a medium (3 ml) containing 4% fetal calf serum and 1% methylcellulose. […] The plaques were counted under an inverted microscope (Circulation. 89:846-851, 1994). […]
The intracardiac NO content was measured using the same supernatant as used for the cytokine assay according to a modified method of Griess method (J. Am. Coll. Cardiol. 33:1400-1407, 1999; Anal. Biochem. 224:502-508, 1995). […] Optical density at 540 nm was measured using a microplate reader. The nitrite concentration of each sample was calculated based on the standard product. […] The intracardiac NO content was determined by dividing each nitrite concentration by the total protein concentration of each supernatant and expressed in μM/mg total protein. […]

EMC virus [1] = test: Survival rate, EMC viral myocarditis in mice (Experimental Example 2); assay type: in vivo, DBA/2 male mice; settings: compound 1 10 mg/kg/day orally for 14 days, n=22 (6 survived); control 0%
Protocol: The effects on viral myocarditis of compound 1 and an immunosuppressant, cyclosporin A (hereinafter to be referred to as CsA), were compared. The compound 1 was dissolved in sterile distilled water and administered, and CsA was dissolved in olive oil and administered.
Four-week-old DBA/2 male mice were divided into 3 groups, and EMC virus (10 pfu) was intraperitoneally inoculated. After inoculation, distilled water (solvent, control group, n=21), CsA (40 mg/kg/day, CsA group, n=9), and compound 1 (10 mg/kg/day, compound 1 group, n=22) were orally administered forcibly for 14 consecutive days using a probe. The survival rate of each group after 14 days was compared by Kaplan-Meier method.

[2] = test system: EMC (Encephalomyocarditis) virus; test: Survival rate, EMC viral myocarditis in mice (Experimental Example 1); assay type: in vivo, DBA/2 mice; settings: EMC virus 10 pfu i.p., control 0%
Protocol: Four-week-old DBA/2 mice were divided into 3 groups, and EMC (Encephalomyocarditis) virus (10 pfu) was intraperitoneally inoculated. After inoculation, distilled water (solvent, group A, n=11) as a control, compound 1 (1 mg/kg/day, group B, n=10), and compound 1 (3 mg/kg/day, group C, n=10) were orally administered forcibly for 14 consecutive days using a probe. The survival rate of each group after 14 days was compared by Kaplan-Meier method.

EMC virus [3] = test: Intracardiac virus titer (plaque assay on human amnion FL cells); assay type: in vivo, male DBA/2 mice; settings: CsA 40 mg/kg/day, compound 1 10 mg/kg/day orally for 5 days; heart at day 5; mean ± SEM; control 5.18 ± 2.73 × 10^6
Protocol: (§1) Four-week-old male DBA/2 mice were divided into 3 groups and EMC virus (10 pfu) was intraperitoneally inoculated. After inoculation, distilled water (solvent, n=8) as a control, CsA (40 mg/kg/day, n=5), and compound 1 (10 mg/kg/day, n=7) were orally administered forcibly for 5 consecutive days using a probe. Five days later, the heart was aseptically harvested from the mice, and after weighing the ventricle, homogenized in phosphate-buffered saline (PBS, 1 ml). The homogenate was centrifuged at 4° C., 1,500 g for 15 min and the supernatant (0.1 ml) was inoculated to human amnion FL cell monolayer and cultured at 37° C. for 60 min in 5% CO2. The cells were overlaid with a medium (3 ml) containing 4% fetal calf serum and 1% methylcellulose. After culture under 5% CO2-containing humidified atmosphere at 37° C. for 20 hr, the cells were fixed with acetic acid-methanol (1:2) and stained with 1% crystal violet. The plaques were counted under an inverted microscope (Circulation. 89:846-851, 1994). When the plaques are too many to count, the supernatant is appropriately diluted with Dulbecco's modified Eagle's medium (DMEM) and subjected to a similar assay. The test was repeated and the mean was taken. The virus titer was expressed in pfu/g heart. The statistical analysis was conducted by one way ANOVA and Fisher's protected least significant difference test.

IL-12 = test: Intracardiac cytokine assay (ELISA), IL-12; assay type: in vivo, mouse; settings: heart ventricle at day 5; CsA 40 mg/kg/day, compound 1 10 mg/kg/day orally; mean ± SEM; control 71.76 ± 7.37
Protocol: as §1, with “The test was repeated and the mean was taken. The virus titer was expressed in pfu/g heart. The statistical analysis was conducted by one way ANOVA and Fisher's protected least significant difference test.” left out
(§2) The total protein concentration of each supernatant was measured by bicinchoninic acid (BCA) method, and the ratio of the cytokine concentration to the total protein concentration was calculated (J. Am. Coll. Cardiol. 33:1400-1407, 1999). […]

[4] = test system: EMC (Encephalomyocarditis) virus; test: Histopathological observation of the heart (Experimental Example 1); assay type: in vivo, DBA/2 mice; settings: n=8, day 5, mean ± SEM; for necrosis of myocardial cell (score 0 to 4+): control 1.9 ± 0.2; for cellular infiltration (score 0 to 4+): control 2.0 ± 0.2
Protocol: (§3) Four-week-old DBA/2 mice were divided into 3 groups and EMC (Encephalomyocarditis) virus (10 pfu) was intraperitoneally inoculated. After inoculation, distilled water (solvent, n=9) as a control, compound 1 (3 mg/kg/day, n=8), and compound 1 (10 mg/kg/day, n=8) were orally administered forcibly for 5 consecutive days using a probe. Five days later, the heart was removed, and, after fixing with formalin, subjected to hematoxylin-eosin staining, based on which heart necrosis and cellular infiltration were scored as follows. • 0; no lesion, • 1+; lesion in 25% or less of the heart, • 2+; lesion in more than 25% and not more than 50% of the heart • 3+; lesion in more than 50% and not more than 75% of the heart • 4+; lesion in more than 75% and not more than 100% of the heart Results

TNF-α = test: Intracardiac cytokine assay (ELISA), TNF-α; assay type: in vivo, mouse; settings: heart ventricle at day 5; CsA 40 mg/kg/day, compound 1 10 mg/kg/day orally; mean ± SEM; control 4.11 ± 0.11
Protocol: as §1, with “The test was repeated and the mean was taken. The virus titer was expressed in pfu/g heart. The statistical analysis was conducted by one way ANOVA and Fisher's protected least significant difference test.” left out
as §2

EMC virus [5] = test: Histopathological observation of the heart (Experimental Example 2); assay type: in vivo, male DBA/2 mice; settings: CsA 40 mg/kg/day, compound 1 10 mg/kg/day orally for 5 days, day 5, mean ± SEM
Protocol: as §3
Four-week-old male DBA/2 mice were divided into 3 groups and EMC virus (10 pfu) was intraperitoneally inoculated. […] Five days later, the heart was harvested, and, after fixing with formalin, subjected to hematoxylin-eosin staining, based on which heart necrosis and cellular infiltration were scored according to the criteria shown in Experimental Example 1.
The myocardial cell necrosis and cellular infiltration were independently scored by two observers and averaged. […]

IFN-γ = test: Intracardiac cytokine assay (ELISA), IFN-γ; assay type: in vivo, mouse; settings: heart ventricle at day 5; CsA 40 mg/kg/day, compound 1 10 mg/kg/day orally; mean ± SEM; control 151.20 ± 15.66
Protocol: as §1, with “The test was repeated and the mean was taken. The virus titer was expressed in pfu/g heart. The statistical analysis was conducted by one way ANOVA and Fisher's protected least significant difference test.” left out
as §2

IL-2 = test: Intracardiac cytokine assay (ELISA), IL-2; assay type: in vivo, mouse; settings: heart ventricle at day 5; CsA 40 mg/kg/day, compound 1 10 mg/kg/day orally; mean ± SEM; control 12.79 ± 1.24
Protocol: as §1, with “The test was repeated and the mean was taken. The virus titer was expressed in pfu/g heart. The statistical analysis was conducted by one way ANOVA and Fisher's protected least significant difference test.” left out
as §2

In the case of CCCCCCCCc1ccc(CCC(N)(CO)CO)cc1 [compound 1, 2-Amino-2-(2-(4-octylphenyl)ethyl)propane-1,3-diol hydrochloride], the NO content (NO) is reported as 1.91 ± 0.34 μM/mg total protein, the “survival rate at day 14” value (EMC virus [1]) is reported as 27% and the “survival rate at day 14” value ([2]; 1 mg/kg/day orally for 14 days (group B, n=10)) is reported as 10%. For the same compound, the “survival rate at day 14” value ([2]; 3 mg/kg/day orally for 14 days (group C, n=10), p<0.05) was 30%, the virus titer (EMC virus [3]) was 1.23 ± 0.53 × 10^7 (NS) pfu/g heart and the IL-12 (IL-12) was 46.00 ± 12.82 pg/mg total protein. The “necrosis of myocardial cell (score 0 to 4+)” value (shortened to “necrosis of myocardial cell”) ([4]; 3 mg/kg/day orally for 5 days) was 1.7 ± 0.4, the “cellular infiltration (score 0 to 4+)” value ([4]; 3 mg/kg/day orally for 5 days) was 1.6 ± 0.2 and the “necrosis of myocardial cell” value ([4]; 10 mg/kg/day orally for 5 days) was 1.0 ± 0.2. The “cellular infiltration (score 0 to 4+)” value ([4]; 10 mg/kg/day orally for 5 days) was 1.1 ± 0.2, the TNF-α (TNF-α) was 3.72 ± 0.25 ng/mg total protein and the “necrosis of myocardial cell” value (EMC virus [5]; control 1.89 ± 0.23) was 1.00 ± 0.19. The “cellular infiltration (score 0 to 4+)” value (EMC virus [5]; control 2.00 ± 0.19) was 1.06 ± 0.19, the IFN-γ (IFN-γ) was 108.86 ± 12.98 pg/mg total protein and the IL-2 (IL-2) was 6.06 ± 0.67 ng/mg total protein.
